This test deals with wild type A/Albany (H3N2) strain. Kind of test: Hollow fiber system, MDCK cells, continuous infusion 168 hours, viral titer and sequencing. The format is cell-based, Influenza A virus (H3N2). To be noted: monotherapy arms vs. triple high dose arm.

On to `CCOC(=O)C1=C[C@@H](OC(CC)CC)[C@H](NC(C)=O)[C@@H](N)C1` [Oseltamivir], for which the “formation of drug resistance (M2, NA sequencing)” value is “appreciable formation of M2 and NA drug resistance”.

The values above are taken from patent US7981930B2, “Compositions and kits for treating influenza” (Adamas Pharmaceuticals, Inc., priority 2007, dated 2011).
